# Data reported in patent US11491147B2, “Combination drug therapy reduces PARP-1 related DNA repair and increases the efficacy of genotoxic agents” (Indiana University Research and Technology Corporation, priority 2016, dated 2022).
# Assays:
# MCF7 cells [1] = assay: Colony formation survival assay, MCF7 cells; format: cell-based, human; conditions: MCF7 cells; for IC50: Homo sapiens, single agent, colony formation, read-out: IC50, cell survival
# Method: FIG. 15. […] B. Combination index. Combination index (CI) was derived using the data shown in A and the formula: […]
# (§1) For each potency ratio, combination index of three effective concentrations at IC30, IC50, and IC70 were calculated for synergistic effects using Prism 7.0.
# (§2) Cells were then harvested and re-plated in 6-well plates at a density of 200 cells/well followed by IR treatment at different doses and colony formation assay or collection of cells for Western blot analysis. Concentration-response curves and IC50 values were calculated using Prism 7.0 (GraphPad, La Jolla, USA).
# MDA-MB-231 cells = assay: Colony formation survival assay, MDA-MB-231 cells; format: cell-based; conditions: Homo sapiens, single agent, read-out: IC50, cell survival
# MDA-MB-468 cells [2] = assay: Colony formation survival assay, MDA-MB-468 cells; format: cell-based, human; conditions: pre-treated with 10 μM lansoprazole for 3 days
# Method: as §1, §2
# PARP1 expression = assay: Western blot of PARP1 expression in 4 breast cancer cell lines; format: cell-based, human; conditions: lansoprazole at different concentrations, all 4 cell lines
# Source text: FIG. 18. Role of FASN in mediating PPI effect. A, Western blot analysis of FASN and PARP1 expression in MCF7 cells with ectopic FASN over-expression and in drug resistant MCF7/AdVp3000 (M3K) cells with FASN knockdown. […] E, Rescue of lansoprazole-induced reduction in NHEJ activity by ectopic FASN over-expression. […] G, Ablation of lansoprazole-induced γH2AX level increase by ectopic FASN over-expression as determined using Western blot analysis. Actin was used as loading control for all Western blot analyses.
# FASN can regulate NHEJ repair activity by regulating PARP1 expression (Wu et al., 2017).
# Cells were harvest and then lysed in TNN buffer with 1 mM DTT, 1 mM PMSF and 0.1% SDS for 30 min at 4° C. with occasional agitation. The cells were sonicated briefly and total proteins were harvested after centrifugation of the lysate at 16,000 g for 15 minutes at to remove cell debris. The protein concentration of cell lysates was determined using a Bio-Rad protein assay kit. […]
# [3] = test system: NHEJ activity in MCF7 cells; assay: Host cell reactivation NHEJ assay, MCF7 cells; format: cell-based, human; conditions: 10 μM, three days
# Method: (§3) The host cell reactivation NHEJ assay was carried out as previously described (Wu et al., 2017) with minor modifications. Briefly, 1×10^4 cells were seeded in 24-well plates, cultured overnight and then treated with 10 μM Lansoprzole or vehicle every day for three days before transfection with either linearized or intact pGL3-luc firefly luciferase plasmids (400 ng) using Lipofectamine 2000 (Invitrogen). pGL3-luc plasmid was linearized by HindIII digestion, and linearization was verified by DNA agarose gel electrophoresis before transfection. pRL-TK (Promega) plasmid which encodes renilla luciferase was co-transfected (400 ng) as a control for transfection efficiency. 8 hours after transfection, cells were harvested and assayed for luciferase activity with Dual Luciferase Assay (Promega) on a luminometer. Firefly luciferase signal were normalized to renilla luciferase signal in each group. Overall NHEJ activity was calculated by firefly luciferase activity from cells transfected with linearized plasmid relative to that of the intact plasmid.
# [4] = test system: NHEJ activity in MDA-MB-468 cells; assay: Host cell reactivation NHEJ assay, MDA-MB-468 cells; format: cell-based, human; conditions: 10 μM, three days
# Method: as §3
# γ-H2AX in MCF7 cells = assay: Western blot of γ-H2AX, MCF7 cells; format: cell-based, human; conditions: lansoprazole alone
# Method: (§4) Furthermore, the lansoprazole-induced γ-H2AX increase in MCF7 cells was ablated by over-expressing ectopic FASN (FIG. 18G).
# (§5) Cells were harvest and then lysed in TNN buffer with 1 mM DTT, 1 mM PMSF and 0.1% SDS for 30 min at 4° C. with occasional agitation. The cells were sonicated briefly and total proteins were harvested after centrifugation of the lysate at 16,000 g for 15 minutes at to remove cell debris. The protein concentration of cell lysates was determined using a Bio-Rad protein assay kit. Total cell lysates were then separated by SDS-PAGE, transferred to a polyvinylidene fluoride membrane, and probed using antibodies against fatty acid synthase (610963, BD biosciences), PARP-1 (46D11, CST), γ-H2AX (05-636, Millipore), and (3-Actin (A2228, Sigma). The blot was then probed with horseradish peroxidase-conjugated secondary antibodies (Sigma) and signals were captured on X-ray films following developing with Amersham ECL Western Blotting Detection Reagent (RPN2106, GE).
# [5] = test system: γ-H2AX in MDA-MB-468 cells; assay: Western blot of γ-H2AX, MDA-MB-468 cells; format: cell-based, human; conditions: lansoprazole alone
# Method: as §4, §5
# MCF7 cells [6] = assay: Apoptosis and cell cycle distribution, MCF7 cells; format: cell-based, human
# Method: (§6) Cancer cells were plated in 6-well plates at a density of 2×10^5 cells/well, cultured overnight. […] Cells were washed with PBS and fixed ice cold 70% ethanol overnight. After centrifugation, pellets were resuspended in PBS, stained with propidium iodide solution for 30 min in the dark and analyzed by flow cytometry.
# MDA-MB-468 cells [7] = assay: Apoptosis and cell cycle distribution, MDA-MB-468 cells; format: cell-based, human
# Method: as §6
# breast cancer patients = assay: Retrospective survival analysis of electronic medical records of breast cancer patients; format: in vivo, human
# Method: FIG. 16. Retrospective survival analysis of breast cancer patients with or without use of proton pump inhibitors (PPIs). De-identified electronic medical records of 6,752 breast cancer patients were retrieved from the database of Indiana Network for Patient Care (INPC) and subjected to Kaplan-Meier survival analysis in association with PPI usage in all patients (A) or in triple negative breast cancer patient subgroup (B). The p-value and hazard ratio (HR) were calculated from Cox proportional hazard models, which were adjusted for age, tumor stage, and time of first diagnosis.
# Because PPIs are widely used for treatment of a variety of acid-related digestive disorders, many cancer patients may use PPIs without the knowledge that the combination of PPIs with their chemotherapy may have helped them. To this end, a retrospective association analysis was conducted using de-identified electronic medical records (EMR) of 6,752 breast cancer patients from Indiana Network for Patient Care (INPC). The average age at diagnosis is 58.9 years (range 19-102) and average age at death or last visit is 61.5 (range 21-104). Of this cohort, 534 patients took one or more PPIs after diagnosis as recorded in the EMR. There are 488 triple negative breast cancer (TNBC) patients, among them 35 used PPIs. Using the Cox proportional hazard regression model, the patient overall survival was analyzed against PPI usage. […] The protective effect of PPIs on patient survival was adjusted for age, tumor stage, and time of first diagnosis.
# The patient database contains three domains of electronic medical records (EMR) of 6,752 de-identified breast cancer patients from Indiana Network for Patient Care (INPC). The first domain contains patient characteristics as shown in Supplemental Table 51. The second domain contains medical test results including body weight, blood tests, and office visit information. The third domain contains prescription information for each patient. The use of this database has been approved by IRB at Indiana University for this study.
# The first task is to remove null and duplicated values and to resolve contradicting records. For patients that have contradicting records, different rules for different conflicts were followed. For conflicts on the first visit or diagnosis time, the earlier record at younger age were used as the first diagnosis and considered the later one as system update. For all other information including diagnosis information such as cancer subtype, the latest record was used as it is thought to be more accurate.
# Next, the plain text information from the first domain of the database including but not limited to ER, PR, and HER2 test results, treatment plans, and therapy types were digitized. The record that is not clear was marked as unknown. For example, the HER2 status with a 2+ score, a borderline score, from IHC staining was usually confirmed with FISH test. Patients with a 2+ score but without a FISH test result were considered unknown in this study.
# Further, the days of patient survival from data in the first domain were validated using prescription history of the same patient in the third domain of the database. When there is a conflict, the last day of office visit or prescription refill, whichever is later, was recorded as the last day of visit or death. Moreover, patients who took PPIs prior to their diagnosis of breast cancer but stopped taking them after diagnosis were considered non-PPI users in this study.
# [8] = test system: MCF7, T47D, MDA-MB-231, and MDA-MB-468 cells; assay: Colony formation survival assay, four breast cancer cell lines
# Method: Next, tested whether PPIs inhibit survival of breast cancer cell lines with different levels of FASN expression (FIG. 17B) using colony formation assay.
# Briefly, breast cancer cells were seeded in six-well plates at 200 cells/well and cultured overnight followed by treatments without or with PPIs at different concentrations for 14 days. The colonies formed were then washed with PBS, fixed in 100% methanol and stained with 0.5% crystal violet in 25% methanol. The stained colonies were counted manually and concentration-response curves with IC50 were generated using Prism 7.0 (GraphPad, La Jolla, USA).
# M/FASN cells = assay: MTT survival assay, M/FASN cells; format: cell-based, human
# Method: (§7) FIG. 5. PARP-1 mediates FASN-associated DNA repair and genotoxic treatment resistance. A-B, Effect of FASN on PARP-1 expression as determined by Western blot (A) and real-time RT-PCR (B) in stable FASN-over-expressing and -knockdown cells. C, Effect of FASN on IR-induced histone-H3 PARylation. Cells were pre-treated without or with 0.5 μM olaparib followed by treatment with or without IR and harvested at different times following IR for lysate preparation, immunoprecipitation of histone-H3 in the presence of 100 μM PARG inhibitor, gallotannin, and Western blot analyses of PARylated and total histone H3. D, Effect of PARP-1 knockdown on FASN-induced NHEJ up-regulation. FASN-over-expressing (P/FASN) and the control (P/Vec) cells were transiently transected with PARP-1 or scrambled control siRNA followed by Western blot analysis of PARP-1 (left panel) and NHEJ activity assay (right panel) (n=3, *p<0.05; **p<0.01). E, Effect of PARP-1 inhibition on survival. M/FASN cells were treated with 1 mM 3-ABA, 0.5 μM olaparib, or their vehicle control for 48 hours followed by MTT assay. F, Effect of PARP-1 inhibition on doxorubicin resistance. M/FASN cells were pre-treated for 6 hours by 1 mM 3-ABA, 0.5 μM olaparib, or transfected with control or PARP-1 siRNA followed by tested doxorubicin resistance using MTT survival assay. (n=3-4, *p<0.05, **p<0.01).
# To determine if FASN enhancement of PARP-1 likely mediates FASN function in cellular resistance to DNA damages, a survival assay of […] cells following doxorubicin treatment in the absence or presence of PARP-1 inhibitors, 3-ABA (3-aminobenzamide) or olaparib was carried out. Now referring to FIG. 5E, either 1 mM 3-ABA or 0.5 μM olaparib alone had no effect on M/FASN cell survival.
# MTT survival assay was performed as previously described (see e.g., Yang Y, Chen Q, & Zhang J T (2002) Structural and functional consequences of mutating cysteine residues in the amino terminus of human multidrug resistance-associated protein 1. J. Biol. Chem. 277(46):44268-44277). Briefly, cells in 96-well plate were cultured for 24 hours and treated with various concentrations of doxorubicin, bleomycin, cisplatin or H2O2 continuously for 3 days followed by addition of thiazolyl blue tetrazolium bromide (MTT) to a final concentration of 0.5 mg/mL and incubation at 37° C. for 4 hours. Medium was then removed and formazan was solubilized in dimethyl sulfoxide and the OD570 was measured by a Synergy H1 hybrid reader (BioTek, Winooski, Vt.). IC50's were obtained from the fitted curves generated by GraphPad Prism 5.0 program (GraphPad Software, Inc.). Relative resistance factor (RRF) is calculated using the formula RRF=IC50 (test)/IC50 (control) with control normalized as 1. […]
# PARylated histone-H3 = assay: IR-induced histone-H3 PARylation, immunoprecipitation and Western blot; format: cell-based, human; conditions: pre-treatment with 0.5 μM olaparib, 5 Gy IR, P/FASN and P/Vec cells
# Method: as §7, with “*p<0.05, **p<0.01). […]” for “*p<0.05, **p<0.01).”
# TE activity of FASN = target: T1, TE activity of FASN (Homo sapiens, UniProt P49327); assay: TE activity assay using recombinant TE; format: biochemical
# T1 construct: TE activity assay was performed also as previously described using recombinant TE (Fako et al., 2015)
# T1 sequence (P49327 2207-2511 limits assumed): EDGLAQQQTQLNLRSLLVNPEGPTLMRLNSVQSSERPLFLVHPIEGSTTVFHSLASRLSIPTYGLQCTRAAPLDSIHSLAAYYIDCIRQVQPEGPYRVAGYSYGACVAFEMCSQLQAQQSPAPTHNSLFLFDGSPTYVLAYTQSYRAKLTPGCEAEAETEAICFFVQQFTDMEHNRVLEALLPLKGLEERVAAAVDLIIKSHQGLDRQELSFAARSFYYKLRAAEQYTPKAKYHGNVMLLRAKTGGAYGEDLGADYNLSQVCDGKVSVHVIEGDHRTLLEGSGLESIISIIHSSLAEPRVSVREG
smiles,measurement,setting,value
Cc1c(OCC(F)(F)F)ccnc1C[S+]([O-])c1nc2ccccc2[nH]1 (stereo not shown) [lansoprazole],IC50,MCF7 cells [1],1300 ± 700 nM
same,sensitization to IR treatment,MCF7 cells [1]; pre-treated with 10 μM lansoprazole for 3 days,sensitized
same,IC50,MDA-MB-231 cells,21400 ± 4100 nM
same,sensitization to IR treatment,MDA-MB-468 cells [2],sensitized
same,PARP1 expression,PARP1 expression,dose-dependently reduced
same,NHEJ activity,[3],significantly reduced
same,NHEJ activity,[4],significantly reduced
same,level of γ-H2AX,γ-H2AX in MCF7 cells,increased the level of γ-H2AX in a dose-dependent manner
same,level of γ-H2AX,[5],increased the level of γ-H2AX in a dose-dependent manner
same,apoptosis,MCF7 cells [6],dose-dependently induced apoptosis
same,cell cycle distribution,MCF7 cells [6],cell cycle arrest at G1
same,apoptosis,MDA-MB-468 cells [7],dose-dependently induced apoptosis
same,cell cycle distribution,MDA-MB-468 cells [7],S phase
same,"HR (CoxPH ratio), overall survival","breast cancer patients; pairwise versus Omeprazole users, all patients",0.68
same,"HR (CoxPH ratio), overall survival","breast cancer patients; single-PPI users versus No PPI, all breast cancer patients",0.17
same,"HR, overall survival","breast cancer patients; versus No PPI, African American (AA) patients",1.09*10^−7
same,"HR, overall survival","breast cancer patients; versus No PPI, Caucasian (CA) patients",0.18
same,"HR, overall survival","breast cancer patients; versus Omeprazole, AA patients",3.99*10^−9
same,"HR, overall survival","breast cancer patients; versus Omeprazole, CA patients",0.81
same,"inhibition of breast cancer cell survival, comparison among PPIs",[8],the most effective one for all 4 cell lines
O=C(c1cc(Cc2n[nH]c(=O)c3ccccc23)ccc1F)N1CCN(C(=O)C2CC2)CC1 [olaparib],IC50,MCF7 cells [1],1000 nM
same,effect on M/FASN cell survival,"M/FASN cells; 1 mM 3-ABA or 0.5 μM olaparib alone, 48 hours",no effect
same,doxorubicin resistance level of M/FASN cells,M/FASN cells; pre-treated for 6 hours by 1 mM 3-ABA or 0.5 μM olaparib,significantly reduced
same,IR-induced PARylation of histone-H3,PARylated histone-H3,inhibited IR-induced PARylation
Cc1c(OCC(F)(F)F)ccnc1C[S@@+]([O-])c1nc2ccccc2[nH]1 [R-lansoprazole],"inhibition of TE (Ki), R- versus S-enantiomer",TE activity of FASN,significantly more effective than the S-lansoprazole
